Experimental data taken from patent publication US20060222647A1, “Methods and compositions for modulating the activity of PDE5” (priority 1993, published 2006).
Where two headings read alike, the source gives them in different places.

What was measured:
[1] = biological target: T1, bovine cGB-PDE (Bos taurus, UniProt Q28156); assay: [3H]cGMP-binding assay of extracts of COS-7 cells transfected with pCDM8-cGB-PDE
T1 construct: which contains the entire coding region of cGB-8; made in house; host or cells: COS-7 cells, whole-cell extract
Description: Cell extracts were assayed for [^3H]cGMP-binding activity in the absence or presence of 0.2 mM 3-isobutyl-1-methylaxanthine (IBMX) (Sigma), a competitive inhibitor of cGMP hydrolysis. The cGMP binding assay, modified from the assay described in Thomas I, supra, was conducted in a total volume of 80 μl. […] Assays were carried out in the absence and presence of 0.2 mM IBMX. The reaction was initiated by the addition of the cell extract, and was incubated for 60 minutes at 0° C. Filtration of the reaction mixtures was carried out as described in Thomas I, supra. Blanks were determined by parallel incubations with homogenization buffer replacing cell extracts, or with a 100-fold excess of unlabelled cGMP.
Results of the assay are set out in FIG. 7. […] The ability of IBMX to stimulate cGMP binding 2-5 fold is a distinctive property of the cGMP-binding phosphodisterases.
Results are presented in FIG. 8 wherein cGMP binding in the absence of unlabelled competitor was taken as 100% and each data point represents the average of three separate determinations.

[2] = biological target: native cGB-PDE and WT cGB-PDE (Bos taurus, UniProt Q28156); assay: cGMP-binding kinetics of native and recombinant wild type cGB-PDE; design: species or system bovine
[3] = biological target: D478A mutant cGB-PDE (Bos taurus, UniProt Q28156, D478A); assay: cGMP-binding kinetics of D478A mutant cGB-PDE; design: species or system bovine
[4] = biological target: T2, recombinant PDE5 (Mus musculus, UniProt Q8CG03); assay: cGMP saturation binding assay (Millipore filter binding); settings: 0.01-20 μM cGMP, IBMX present, 30 min on ice
T2 construct: made in house; host or cells: HEK 293 cells, transient transfection; lysate supernatant or Mono Q fractions
Description: Binding studies were conducted by the Millipore filter binding assay in a total volume of 40 μl containing binding buffer (50 mM Tris-HCl, pH 7.5, 2.0 mM EDTA, 1 mM DTT, 100 mM NaCl) and 0.1 mM IBMX in the presence of 0.01 -20 μM ^3H-cGMP. In some experiments an additional 30 min preincubation of recombinant PDE5 with monoclonal antibodies (mAb/P3B2 or mAb/P4D8) was performed before addition of cGMP. Following a 30 min incubation on ice, 1 ml of ice cold binding buffer was added to the assays. The samples were immediately filtered through a Millipore HAWP nitrocellulose membrane (pore size 0.45 μM, 24 mm diameter) and rinsed three times with ice cold binding buffer (10 ml each). The filters were dissolved in 5 ml of Filter Count™ (Packard Instrument) and counted in a liquid scintillation counter.
The cGMP saturation binding assay was employed (FIG. 14) using recombinant PDE5 without (filled squares) or with preincubation with monoclonal antibodies mAb/P3B2 (filled circles) or mAb/P4D4 (filled triangles) for 30 min on ice, to determine the Kd for cGMP binding. The binding assays were performed with 0.01-20 μM cGMP in the presence of […] for 30 min on ice. The specific binding (cpm) is calculated by subtraction of nonspecific binding from total binding. […] A linear scatchard plot of the cGMP binding data indicated one class of cGMP-binding sites. […]

[5] = biological target: T3, recombinant mouse PDE5 (Mus musculus, UniProt Q8CG03); assay: PDE5 activity assay of recombinant mouse PDE5 expressed in HEK 293 cells; assay type: biochemical; settings: for IC50: IC50 for sildenafil inhibition
T3 construct: made in house; host or cells: HEK 293 cells, transient transfection; lysate supernatant or Mono Q fractions
Description: Phosphodiesterase assays were carried out according to established procedures. All assays were performed for 5 min (unless otherwise indicated) at 30° C. using different concentrations of cGMP (0.1-10 μM) as substrates. Protein concentrations were determined by the Coomassie Plus protein assay (Pierce).
Recombinant mouse PDE5 was expressed in HEK 293 cells. […] The cells were lysed in a small volume of homogenization buffer in order to obtain a concentrated extract, and then the cell extract was preincubated with 50 μM cGMP on ice without PDE inhibitors (filled triangles, FIGS. 11A and 11B) or with 0.2 μM sildenafil (filled circles, FIG. 11B). At different time points aliquots were diluted 1/400-1/500, and different amounts of diluted extract (additional dilution 1/5-1/10) were used for PDE5 activity assayed at 0.1 μM cGMP for 5 min at 30° C. An additional portion of 50 μM cGMP was added to the preincubation mixture at 60 min after the start of preincubation as indicated by an arrow (open triangles, FIG. 11A). PDE5 activity was expressed as pmol/min/μg of protein. […] The percent of 50 μM cGMP hydrolysis at different time points was measured using the PDE5 activity assay.
To investigate this further, PDE5 was preincubated of with 50 μM cGMP on ice and an aliquot was diluted and assayed with either 0.1 μM, 1.0 μM or […] cGMP for 5 min at 30° C. Data are expressed as fold activation of PDE5 activity after preincubation with 50 μM cGMP (FIG. 12A).
PDE5 activity was measured at 0.1 μM (FIG. 16A), 1.0 μM (FIG. 16B) or 10 μM cGMP (FIG. 16C). It was analyzed without any treatments (filled squares), or after preincubation with 50 μM cGMP on ice (filled triangles), or after preincubation with mAb/P3B2 for 30 min on ice (filled circles). Treatment of PDE5 with mAb/P3B2 for 30 min on ice preceded preincubation with 50 μM cGMP (open circles). PDE5 activity was expressed as […].
Kinetic and inhibitory characteristics of activated PDE5. […] FIG. 18A depicts a Lineweaver-Burk double-reciprocal plot (0.1-10 μM cGMP) of activated (after preincubation with cGMP on ice) (filled triangles) PDE5 and mAb/P3B2 treated PDE5 (filled circles). PDE5 activity was expressed as pmol/min/μg of protein. […] PDE5 activities, assayed at each substrate concentration without sildenafil, were expressed as 100%. Km, Vmax and IC50 values were calculated using GraphPad Prism 2.0 C (GraphPad Software, San Diego, Calif.).

[6] = biological target: T3, recombinant mouse PDE5; assay: as above; assay type: biochemical; settings: assayed at 10 μM cGMP
[7] = biological target: D289A mutant cGB-PDE (Bos taurus, UniProt Q28156, D289A); assay: cGMP-binding kinetics of D289A mutant cGB-PDE
Description: This curvilinearity may have been due to the presence of distinct high affinity (slow) and low affinity (fast) sites of cGMP binding.

[8] = biological target: expressed bovine cGB-PDE cDNA protein product (Bos taurus, UniProt Q28156); assay: cGMP phosphodiesterase activity of extracts of COS cells transfected with bovine cGB-PDE, in presence of PDE inhibitors; assay type: biochemical
Description: The reaction mixture was incubated for 10 minutes at 30° C., and then stopped by boiling. Next, 10 μl of 10 mg/ml Crotalus atrox venom (Sigma) was added followed by a 10 minute incubation at 30° C.

[9] = biological target: cGB-PDE (Bos taurus, UniProt Q28156); assay: Metal dependence of cGB-PDE PDE activity; assay type: biochemical
Description: The catalytic domains of mammalian PDEs and a Drosophila PDE contain two tandem conserved sequences (HX3 HX24 26 E) that are typical Zn^2+-binding motifs in Zn^2+ hydrolases such as thermolysin (Vallee and Auld, Biochem., 29: 5647-5659 (1990)). cGB-PDE binds Zn^2+ in the presence of large excesses of Mg^2+, Mn^2+, Fe^2+, Fe^3+, Ca^2+ or Cd^2+. In the absence of added metal, cGB-PDE has a PDE activity that is approximately 20% of the maximum activity that occurs in the presence of 40 mM Mg^2+, and this basal activity is inhibited by 1,10-phenanthroline or EDTA. […] PDE activity is stimulated by addition of Zn^2+ (0.02-1 μM) or Co^2+([…]), but not by Fe^2+, Fe^3+, Ca^2+, Cd^2+, or Cu^2+. Zn increases the basal PDE activity up to 70% of the maximum stimulation produced by 40 mM Mg^2+. The stimulatory effect of Zn^2+ in these assays may be compromised by an inhibitory effect that is caused by Zn^2+ concentrations>1 μM. The Zn^2+-supported PDE activity and Zn^2+ binding by cGB-PDE occur at similar concentrations of Zn^2+ cGB-PDE thus appears to be a Zn^2+ hydrolase and Zn^2+ appears to play a critical role in the activity of the enzyme. See, Colbran et al., The FASEB J., 8: Abstract 2148 (Mar. 15, 1994).

[10] = activated PDE5 (preincubated with 50 μM cGMP)

Nc1nc2c(ncn2[C@@H]2O[C@@H]3COP(=O)(O)O[C@H]3[C@H]2O)c(=O)[nH]1 [cGMP]
excess concentration of unlabelled competitor required to inhibit [3H]cGMP binding by 50% ([1]; 2.5 μM [3H]cGMP): Less than 10 fold higher concentrations
Kd [2]: ~2000 nM
Kd [3]: ~500 nM
t1/2 of single cGMP-dissociation rate [3]: 2.8 h
Kd [4]: 120 nM
Km [5, 10]: 0.96 µM
Vmax [5, 10]: 27 pmol/min/μg of protein
PDE5 activation after preincubation with 50 μM cGMP ([5]; assayed at 0.1 μM cGMP, 5 min 30° C., 15 min preincubation on ice): 10 times
PDE5 activation after preincubation with 50 μM cGMP ([5]; assayed at 1.0 μM cGMP): 2-3 times
Vmax ([5]; non-activated PDE5 (mAb/P3B2 treated)): 8.9 pmol/min/μg of protein
Km ([5]; non-activated PDE5 (mAb/P3B2 treated), read-out: Km for cGMP): 4.6 µM
PDE5 activation after preincubation with 50 μM cGMP [6]: not detectable
t1/2 of single rate of cGMP-association [7]: 0.5 h
Kd ([7]; read-out: Kd of cGMP binding): > 20000 nM

CC(C)Cn1c(=O)n(C)c(=O)c2[nH]cnc21 [IBMX, 3-isobutyl-1-methylaxanthine]
stimulation of cGMP binding ([1]; 0.2 mM IBMX, 1 μM [3H]cGMP): approximately 1.8 fold

COc1ccc(C2CNC(=O)C2)cc1OC1CCCC1 (stereo not drawn) [rolipram]
IC50 [8]: > 300000 nM

CCCOc1ccccc1-c1nc2nn[nH]c2c(=O)[nH]1
IC50 [8]: 2000 nM

CCCc1nn(C)c2c(=O)[nH]c(-c3cc(S(=O)(=O)N4CCN(C)CC4)ccc3OCC)nc12 [sildenafil]
time PDE5 activation was sustained during preincubation with 50 μM cGMP ([5]; 0.2 μM sildenafil in preincubation mixture): at least 90 min
IC50 ([5]; activated PDE5, assayed at 0.1 μM cGMP): 0.6 nM
IC50 ([5]; activated PDE5, assayed at 1.0 μM cGMP): 1.2 nM
IC50 ([5]; control PDE5, assayed at 0.1 μM cGMP): 2.1 nM
IC50 ([5]; control PDE5, assayed at 1.0 μM cGMP): 4.9 nM

O=C(O)CN(CCN(CC(=O)O)CC(=O)O)CC(=O)O [EDTA]
effect on basal PDE activity in absence of added metal [9]: inhibited

c1cnc2c(c1)ccc1cccnc12 [1,10-phenanthroline]
effect on basal PDE activity in absence of added metal [9]: inhibited
